Values of other authors in patent US8496914B2, “Antibacterial oral rinse formulation for preventing coronary artery disease” (priority 2005, dated 2013).

Key:
[1] = system: Staphylococcus aureus, Staphylococcus epidermidis and Propionibacterium acnes; settings: Raman et al. 1995
Staphylococcus aureus = settings: Williams et al. 1997

Structure (SMILES) | inhibition of three bacterial strains [1] | activity against Staphylococcus aureus (Staphylococcus aureus)
CC1=CCC2CC1C2(C)C (stereo not drawn) [alpha-pinene] | inhibit | –
CC1=CCC(O)(C(C)C)CC1 (stereo not shown) [terpinen-4-ol] | inhibit | equally effective
CC1=CCC(C(C)(C)O)CC1 (stereo not drawn) [alpha-terpineol] | inhibit | –
